# Experimental data taken from patent US6977294B2, “Process for isolation of eupalitin from Boerhavia diffusa” (Council of Scientific and Industrial Research, priority 2002, dated 2005).
# Entries after “also recorded” stand apart in the source; their conditions may differ. Read-outs that look alike come from different tables or passages of the source.
# Experiments:
# Ca^2+ channel = settings: frog heart single cells; cited from earlier work
# [1] = tested on: bone resorption induced by parathyroid hormone (PTH); settings: cited from earlier work; for activity compared with ipriflavone: under identical conditions, anti-osteoporosis activity
# solubility in methanol = format: physicochemical
# Source text: The process of the present invention overcomes disadvantages of the prior art since: • 1. Aerial parts such as leaves of Boerhavia diffusa collected from specific locations identified herein are used (containing the maximum amount of the compound and as established by analyzing the samples of the plant collected during three years). • 2. The process prescribes hot continuous extraction (Soxhlet extraction) ensuring complete extraction of compound of formula 1. […] The compound is purified by direct crystallization from the residue obtained after triturition described in 3, making it the simplest, quickest, highly economically viable, scale up compatible for commercial utilization and novel method for the isolation of compound of formula 1 with an yield upto 0.4% which is more than 300 times the yield reported by Li et al.
# [2] = rats; cited from earlier work
# [3] = cats; cited from earlier work
# [4] = monkeys; cited from earlier work
molecule,measurement,setting,value
"COc1cc([C@H]2OC[C@H]3[C@@H]2CO[C@@H]3c2cc(OC)c(O[C@@H]3O[C@H](CO)[C@@H](O)[C@H](O)[C@H]3O)c(OC)c2)cc(OC)c1O[C@@H]1O[C@H](CO)[C@@H](O)[C@H](O)[C@H]1O [Liriodendrin, liriodendrin]",Ca2+ channel block,Ca^2+ channel,blocked
"COc1cc2oc(-c3ccc(O)cc3)c(OC3OC(CO)C(O)C(O)C3O)c(=O)c2c(O)c1OC [eupalitin 3-O-β-D-galactopyranoside, 5,4′-dihydroxy 6,7-dimethoxy-flavonol-3-O-β-D-galactoside]",inhibition of bone resorption induced by parathyroid hormone (PTH),[1]; tissue culture,significant (p<0.001) inhibition
same,activity compared with ipriflavone,[1],greater anti-osteoporosis activity than ipriflavone; also recorded: more than that exhibited by lpriflavone
same,activity compared with ipriflavone,[1]; listed as 3-O-β-D-galactopyranoside,greater anti-osteoporosis activity than ipriflavone
same,solubility in methanol,solubility in methanol,not highly soluble
O=c1[nH]cnc2c1ncn2C1O[C@@H](CO)[C@H](O)[C@H]1O (stereo partly drawn) [hypoxanthine 9-L-arabinoside],cardiovascular effects,[2],depressor and negative chronotropic effects
same,cardiovascular effects,[3],depressor and negative chronotropic effects
Punarnavoside,antifibrinolytic activity,[4],had antifibrinolytic activity
